Test results: PubChem BioAssay AID1508591

conditions: rat; liver microsomes; pH 7.4; 15.0 min; 1.0 µM

Row | SMILES | half-life
1 | O=C(NCCc1ccccc1)C1CCN(c2nc(-c3ccc(Br)cc3)cs2)CC1 | 1.71 min
2 | Cc1ccc(S(=O)(=O)Nc2ccc(C(=O)Nc3nc(-c4ccc(Cl)cc4)cs3)cc2)cc1 | 16 min
3 | CCN(CCO)CCCOc1ccc2c(Nc3cc(CC(=O)Nc4cccc(F)c4)[nH]n3)ncnc2c1 | 1.88 min
4 | CCc1cccc(CC)c1-n1c(C=C(C)C)c(C(=O)N2CCNCC2)cc(-c2nc(-c3ccc(C(F)(F)F)cc3)cs2)c1=O | > 30 min
5 | CC(C)C(=O)N1CCc2ccc(OCc3nc(C(=O)N4CCCC4)co3)cc2C1c1cccc(F)c1 (configuration not stated) | 2.43 min
6 | CCOC(=O)c1ccnc2cc(C(OCCN3CCCCC3)c3ccccc3Cl)sc12 (configuration not stated) | 2.34 min
7 | CCC1=Nc2cc(C(=O)NC3CCCC3)ccc2Sc2ccc(Cl)cc21 | 1.61 min
8 | CC(C)(C)C(O)C(Oc1ccc(Cl)cc1)n1cncn1 (configuration not stated) | > 30 min
9 | NC(=O)C1CCN(c2ncc(-c3cccc(F)c3)s2)CC1 | 9.48 min
10 | CN1C(=O)c2ccccc2[S@](=O)c2ccc(C(=O)NCc3ccc(Cl)cc3)cc21 | 15 min
11 | CN(C(=O)CSc1nc2c(c(=O)[nH]1)CCCC2)c1ccccc1 | 13 min
12 | CNc1nc(-c2cccc3ccccc23)ccc1C#N | 5.7 min
13 | CCS(=O)(=O)c1nc(-c2ccc(Cl)cc2)cc(C(F)(F)F)n1 | 5.7 min
14 | O=[S+]([O-])(Nc1nccs1)c1ccc(NCc2ccc(Cl)c(Cl)c2)cc1 | 24 min
15 | Cc1ccc(S(=O)(=O)Nc2cnccc2C(=O)Nc2nc(-c3nc4ccccc4s3)cs2)cc1 | 24 min
16 | O=S(=O)(Nc1nccs1)c1ccc(NCc2cccc(F)c2O)cc1 | 16 min
17 | CCN(CC)S(=O)(=O)c1ccc(N2CCOCC2)c(NC(=O)c2[nH]c(C)c(C(C)=O)c2C)c1 | 5.49 min
18 | COc1cccc(CNc2ccc(S(=O)(=O)Nc3cc(C)on3)cc2)c1O | > 30 min
19 | Fc1ccc(Nc2nc(-c3ccncc3)ncc2-c2ccccc2)cc1F | 27 min
20 | COc1cc(C(=O)N2CCN(c3cc(Cl)ccc3Cl)CC2)cc(OC)c1OC | 4.31 min
21 | Cc1cccc(N(C)c2nc3ccccc3c3nnc(C)n23)c1 | 1.57 min
22 | Cc1noc(C)c1-c1cc2c(cc(C)n2C)c(-c2cnn(C)c2)n1 | > 30 min
23 | Cc1ccc(NC(=O)NCC2CCN(Cc3cccc(Cl)c3)CC2)cc1Cl | 14.1 min
24 | O=C1C2=C(Nc3ccccc3SC2c2ccco2)c2ccccc21 (configuration not stated) | 4.01 min
25 | CCOc1ccc(CCNC(=O)c2cc3sccc3n2Cc2ccccc2)cc1OCC | 1.7 min
26 | COc1ccccc1C(=O)Nc1nnc(SCc2cc(=O)c3ccccc3[nH]2)s1 | 7.49 min

Row | SMILES | half-life
27 | Cc1nc2ccc(NC(=O)c3cc(S(=O)(=O)N(C)c4ccccc4)ccc3Cl)cc2s1 | 1.55 min
28 | CCOc1ccc(C(C)CNC(=O)c2cc3sccc3n2Cc2ccccc2)cc1OCC (configuration not stated) | 2.5 min
29 | O=C(Nc1ccccc1)C1CCN(c2nc(-c3ccc(Br)cc3)cs2)CC1 | 1.53 min
30 | CCOC(=O)N1CCc2c(sc(NCc3sccc3C)c2C(=O)Nc2cc(Cl)ccc2OC)C1 | 9.8 min
31 | COc1ccccc1-c1nc(NCc2ccc(-c3cccnc3)cc2)c2ccccc2n1 | 4.45 min
32 | Cc1ccnc(NC(=S)N2CCN(c3cc(Cl)cc(Cl)c3)CC2)c1 | > 30 min
33 | Cc1cc(C)nc(NC(=S)N2CCN(c3ccc(F)cc3F)CC2)c1 | > 30 min
34 | COc1ccccc1C(=O)N1CCc2cc(-c3nc(NC(=O)Cc4ccc5c(c4)OCO5)sc3C)ccc21 | 9.6 min
35 | Cc1cc(C)nc(NC(=S)N2CCN(c3ccc4nsnc4c3)CC2)c1 | 15.2 min
36 | CC(Nc1ccc([S+](=O)([O-])Nc2nccs2)cc1)c1ccccc1 (configuration not stated) | 13 min
37 | COc1ccc(OC)c(C(=O)Nc2nc(-c3ccccc3)cs2)c1 | 20 min
38 | Cc1cc(NS(=O)(=O)c2ccc(N(C)C(=O)Cc3ccc(Cl)c(Cl)c3)cc2)no1 | > 30 min
39 | COc1ccc(-n2nc(C3CCCN(C(=O)c4ccccc4)C3)[nH]c2=O)cc1 (configuration not stated) | > 30 min
40 | COc1ccccc1CN1CCNc2cc(Nc3ccccc3)ncc2C1 | 1.21 min
41 | Fc1cnc(-c2ccccc2C(F)F)nc1NCc1ccc(-n2ccnn2)cc1 | 21 min
42 | CNc1cc(-c2nc(Nc3ccc(F)c(F)c3)c3ccccc3n2)ccn1 | 8.2 min
43 | CCc1ccccc1-n1c(SCC(=O)Nc2ccc(C)cc2)nc2n[nH]c(C)c2c1=N | 1.25 min
44 | CCOC(=O)c1ccc(N2C(=O)c3n[nH]c(-c4cccs4)c3C2c2ccc(Cl)cc2Cl)cc1 (configuration not stated) | 20.1 min
45 | C#CCNC(=O)c1nc(-c2ccc(Cl)nc2)c2ccccn12 | 24 min
46 | O=C(O)Cc1ccc2oc(-c3ccc(NC(=O)/C=C/c4ccc(Br)cc4)c(F)c3)nc2c1 | > 30 min
47 | Cc1ccc(S(=O)(=O)Nc2cnccc2C(=O)Nc2nc(-c3ccc4c(c3)CCCC4)cs2)cc1 | 2.3 min
48 | OCCN1CCN(CCCN2c3ccccc3Sc3ccc(Cl)cc32)CC1 | 4.34 min
49 | O=S(=O)(c1ccccc1)N1CCCCC1CCc1ccccc1 (configuration not stated) | 2.32 min
50 | CC(C)c1ccccc1-c1ncc(F)c(NC(C)(C)c2ccc(-c3cccnc3)cc2)n1 | 2.3 min
51 | CN(C)C(=O)c1ccc(-c2cc[nH]c(=O)c2N)cc1 | > 30 min
52 | O=C(c1cnccn1)N1CCC2(CCCN(C(c3ccccc3)c3ccccc3)C2)CC1 | 1.8 min

Row | SMILES | half-life
53 | COc1ccc(NC(=O)c2[nH]c(C)cc2C)cc1S(=O)(=O)Nc1ccc(Br)cc1 | > 30 min
54 | CC(=O)c1c(C)c2cnc(Nc3ccc(N4CCNCC4)cn3)nc2n(C2CCCC2)c1=O | > 30 min
55 | Cc1ccc(-n2ncc3c(Nc4cccc(C(=O)O)c4)ncnc32)cc1 | > 30 min
56 | COc1ccc(-c2cc(-c3cccc(NC(C)=O)c3)cn3cncc23)cn1 | 15.7 min
57 | Cc1ccc(NS(=O)(=O)c2cc3c(cc2N[C@H](C)CO)NC(=O)CC3)cc1C | 1.71 min
58 | COc1cccc2c1CCCC2CCCN1CCN(C2CCCCC2)CC1 (configuration not stated) | 3.39 min
59 | Nc1c(-c2ccccc2)cc[nH]c1=O | > 30 min
60 | O=C(O)c1ccncc1Nc1nn(CCN2CCC(F)(F)CC2)c2ccc(F)cc12 | 22.2 min
61 | O=C1CCCC2=C1C(c1ccccc1Br)N=C(Nc1nc3ccccc3o1)N2 (configuration not stated) | 9.6 min
62 | Cc1ccc(N2CCC(CNc3nc(-c4ccccc4C(C)C)ncc3C)CC2)cn1 | 2.6 min
63 | O=C(O)C1CCN(c2ncc(-c3ccc4c(c3)OCCCO4)s2)CC1 | > 30 min
64 | CCCCCn1cc2c(c1-c1ccc(Br)cc1)c(=O)n(C)c(=O)n2C | 6.39 min
65 | CS(=O)(=O)c1ccc(-c2nnc(/C=C/c3nnc(-c4ccc(C#N)cc4)o3)n2-c2ccccc2Cl)nc1 | > 30 min
66 | O=C(Nc1cccc(OC(F)(F)F)c1)c1cc(-c2ccc[nH]2)n[nH]1 | 20.9 min
67 | O=[S+]([O-])(Nc1ccccc1)c1ccc(NCc2ccc(Cl)cc2O)cc1 | 1.8 min
68 | N#Cc1ccc(N2N=C3c4ccc(C(=O)O)cc4CC[C@@H]3[C@@H]2C2CCCC2)cc1Cl | > 30 min
69 | Fc1ccc(-c2nc(-c3ccncc3)nc3ccccc23)cc1F | 20 min
70 | Cc1noc(/C=C/c2ccccc2F)c1S(=O)(=O)N1CCC(C(=O)Nc2ccc(C#N)cc2)CC1 | 24.7 min
71 | Cn1ccc2cc(-c3csc(N4CCC(C(N)=O)CC4)n3)ccc21 | 2.09 min
72 | Cc1cc(NS(=O)(=O)c2ccc(NCCc3ccc(Cl)c(Cl)c3)cc2)no1 | 12 min
73 | COc1ccc(OC)c(-n2c3c(cc(-c4nc(-c5ccc(Cl)cc5)cs4)c2=O)C(=O)CC(C)(C)C3)c1 | > 30 min
74 | COCCN1CCNc2nc(COc3ccc(C(C)C)cc3)n(Cc3ccccc3)c2C1=O | 1.82 min
75 | CC1=C(C(=O)Nc2ccccc2)C(c2ccccc2Br)N=C(Nc2nc3ccccc3o2)N1 (configuration not stated) | 27 min
76 | c1ccc(C2=Nn3c(nnc3-c3ccncc3)SC2)cc1 | 9.1 min
77 | CC(C)N(CCCNC(=O)Nc1ccc(C(C)(C)C)cc1)C[C@H]1O[C@@H](n2cc(Br)c3c(N)ncnc32)[C@H](O)[C@H]1O | 2.47 min
78 | Nc1nc2c(s1)C(c1ccc(F)cc1F)CC(=O)N2 (configuration not stated) | > 30 min

Row | SMILES | half-life
79 | O=C(Nc1ccccc1)C1CCN(c2ncc(-c3ccc4c(c3)OCCCO4)s2)CC1 | 1.44 min
80 | CCCCN(CC)CCCNC(=O)c1ccc2c(c1)N(Cc1ccc(C)cc1)C(=O)c1ccccc1S2 | 4.06 min
81 | COc1cc(O)c([C@H](CC(=O)N2CC(C)CC(C)C2)c2ccc3c(c2)OCO3)c(OC)c1 (some centres not stated) | 3.3 min
82 | O=C(NCC1CCOCC1)C1CC(=O)N(c2n[nH]c3cc(Br)ccc23)C1 (configuration not stated) | > 30 min
83 | Cn1cc(Cl)c(C2N=C(Nc3nc4ccccc4o3)NC3=C2C(=O)CCC3)n1 (configuration not stated) | 7.84 min
84 | CC1=C(C(=O)Nc2ccccc2)C(c2ccccc2Cl)N=C(Nc2nc3ccccc3o2)N1 (configuration not stated) | 24 min
85 | c1cn2cc(-c3ccc4cn[nH]c4c3)nc(Nc3ccc(N4CCOCC4)cc3)c2n1 | 24.9 min
86 | CC(Nc1nc(N2CCN(S(C)(=O)=O)CC2)nc2ccccc12)c1ccccc1 (configuration not stated) | 8.03 min
87 | Cc1ccc(S(=O)(=O)n2cc(C(=O)Nc3nc(-c4ccccc4)cs3)c3ccccc32)cc1 | 23 min
88 | CC(CNC(=O)C1CCN(Cc2cc3ccccc3n2Cc2ccccc2)CC1)c1ccccc1 (configuration not stated) | 1.15 min
89 | CNC(=O)c1nn(C)c2c1C(C)(C)Cc1cnc(Nc3ccc(N4CCN(C)CC4)cc3)nc1-2 | > 30 min
90 | COc1ccccc1Nc1cnc2ccc(-c3ccc(OC)c(OC)c3)nn12 | 6.22 min
91 | CCOc1cc(=O)n2c(c1C(=O)Nc1cc(OC)c(Cl)cc1OC)CCCC2 | > 30 min
92 | CCOc1ccc(CCNC(=O)c2cc3cccnc3n2Cc2cccc(C)c2)cc1OCC | 1.7 min
93 | O=C(c1ccccc1)N1CCC(C(=O)N2CCC(N3Cc4ccccc4C3=O)CC2)CC1 | > 30 min
94 | Cc1ccc(S(=O)(=O)Nc2cnccc2C(=O)Nc2nc(C(=O)O)cs2)cc1 | > 30 min
95 | Fc1cccc(-c2ccc(Nc3nc(-c4ccncc4)nc4ccccc34)cc2F)c1 | > 30 min
96 | CSc1cc2c(s1)c1cnn(Cc3cccc(N)c3)c(=O)c1n2C | 3.6 min
97 | CSc1nc(N)cc(Oc2ccc(-c3nc(Nc4cccc(C(F)(F)F)c4)n[nH]3)cc2)n1 | 21.2 min
98 | CCc1ccc(NC(=O)c2[nH]c(C)c(C(C)=O)c2C)cc1S(=O)(=O)Nc1ccc(Br)cc1 | 23 min
99 | COc1ccc(OC)c(CN2CCNc3cc(Nc4ccccc4)ncc3C2)c1 | 2.23 min
100 | COc1cccc(NC(=O)c2cc(-c3ccc(C)c(C)c3)nc3ccccc23)c1 | 12 min
101 | Fc1cccc(Nc2nc(-c3ccncc3)nc3ccccc23)c1F | 11 min
102 | O=C(Nc1cccc(C(F)(F)F)c1)Nc1cc(S(=O)(=O)NC2CC2)ccc1-c1ccsc1 | 5.65 min
